The values below come from the NIST ThermoML archive (doi:10.1021/je050488p).

Numbers after ± are expanded uncertainties.

For this data set the following is noted: Crystal; visual observation.

`O=P1(CO)Oc2ccccc2-c2ccccc21` (stereo unspecified) [6-(hydroxymethyl)dibenzo[c,e][1,2]oxaphosphinine 6-oxide]: the Normal melting temperature was determined as 158.50 ± 1.5 °C.
